The test system of one assay is EB8-derived cells. The assay can be described thus: Injection of ceramide analog treated EB8-derived cells into mouse brain, teratoma formation. The format is in vivo, C57BL6 mice. The procedure: In vitro differentiating ES cells at stage EB8 were incubated for […] with 75 μM S18, or 35 μM N-acyl sphingosine or other ceramide analogs. Protein was isolated from cells incubated with S18 for 24 hours and from untreated cells, separated by SDS-PAGE, and the expression of Oct-4 was analyzed by immunoblotting.
Prior to injection into the mouse brain, ES cells were labeled with Vybrant-DiI (rhodamine fluorescence) for permanent vital staining and were mixed with India ink in order to track the injection channel and cell migration/tissue integration. 1×10^4 of the untreated ES-J1 cells were injected, while 2×10^4 of the S18-treated cells were injected in order to control for the percentage of cells lost to apoptosis. The ES cells were injected into the right brain hemisphere (bregma—1.5 mm, 1 mm lateral of central suture, 2.0 mm deep) of 8-10 day old C57BL6 mice using a Hamilton syringe. After 7-21 days, the mice were sacrificed, the brain isolated and fixed with 10% PBS-buffered formalin. The brains were Vibratome sectioned at 100 μm. The distribution of the injected cells was determined by fluorescence microscopy.

In assay [1] the test system is seeded sfEBMs derived from HESC colonies. The assay can be described thus: S18 treatment of seeded serum free embryoid bodies (sfEBMs), morphology and DAPI staining. The format is cell-based, human. An excerpt:
sfEBMs were derived from domed HESC colonies, grown in suspension for 24 days with one passage, and seeded to polyornithine/laminin coated chamber slides in DMEM/F12, supplemented with 1×N2 (Gibco), and 1% FCS.
Apoptosis in seeded serum free embryoid bodies was monitored by morphological observation of cell death and DAPI staining to reveal apoptotic nuclei. Apoptotic nuclei were observed as obviously fragmented and degenerating nuclei, with small punctuate patterns of DAPI staining. Rosette regions from essentially serum free embryoid bodies in suspension were passaged further in the same medium, either withdrawing S18 or culturing the embryoid bodies for an additional 4 to 8 days in the presence of S18. Rosette regions were then seeded onto polyornithine/laminin coated slides for analysis of proliferation and differentiation to neural lineages.

The subject of assay [2] is differentiating ES cells (NPs), PAR-4. The assay can be described thus: S18-induced apoptosis (TUNEL) in NPs after PAR-4 antisense knockdown or PAR-4-RFP overexpression. The format is cell-based, mouse. As to the method:
For construction of PAR-4-REP cDNA, RT-PCR was performed with the oligonucleotide primer pair sense 5′atggcgaccggcggctatcg3′ (SEQ ID NO:14) and antisense 5′ctaccttgtcagctgcccaacaac3′(SEQ ID NO:15), using the first strand cDNA generated from embryoid bodies (EB8 stage) as template for the amplification reaction. The primers were endowed with the restriction enzyme cleaving sites Eco47III (sense) and SaII (antisense) for ligation of the PAR-4 specific amplification product into the multiple cloning site of HcRFP, a vector that encodes a far-red shifted variant of red fluorescent protein (Clontech). Differentiating ES cells at the NP1 stage were transfected with the PAR-4-RFP construct using the lipofectamine 2000 procedure according to the manufacturer's instructions (Invitrogen). The transfected cells were incubated in DMEM F12 (50/50), supplemented with 1×N2 and 20 ng/ml FGF-2, and the TUNEL assay or immunostainings were performed after 48 hours of incubation and NP formation. For depletion of ceramide, differentiating ES cell were incubated with 25 μM fumonisin B1 or 50 nM myriocin 48 hours prior to transfection with the PAR-4-RFP vector, and the inhibitor maintained in the medium throughout the post-transfection period. For induction of apoptosis, the novel ceramide analog S18 (40-100 μM), N-acetyl sphingosine (C2-ceramide, 10-30 μM), or natural ceramide isolated from EBs (0.5-1.5 μM) was added 48 hours after transfection with the PAR-4-RFP cDNA, and the degree of apoptosis quantified after 15-20 hours using TUNEL assays with paraformaldehyde-fixed cells as described above.
Endogenous expression of PAR-4 was suppressed by transfection of differentiating ES cells at the NP1 stage with 2 nmoles (per well in 24 wells plate) of the morpholino-based antisense oligonucleotide 5′cgatagccgccggtcgccatgttcc3′(SEQ ID NO:16) (see Guo et al., 1998, Nature Med., 4:957-962; Guo et al., 2001 Brain Res, 903:13-25) following the instructions of the manufacturer (GeneTools) in 0.5 ml of serum-free DMEM/F-12, 1XN2 supplemented with 20 ng/ml FGF-2. For induction of apoptosis, the novel ceramide analog S18 (40-100), N-acetyl sphingosine (C2 ceramide, […], or natural ceramide isolated from EBs (0.5-1.5 μM) was added 48 hours after transfection with the anti-PAR-4 morpholino, and the degree of apoptosis quantified after 15-20 hours using TUNEL assays with paraformaldehyde-fixed cells as described above.

In the case of `CCCCCCCC/C=C\CCCCCCCC(=O)NC(CO)CO` [S18, N-(2-hydroxy-1-(hydroxymethyl)ethyl)-oleoylamide], the teratoma formation result in the assay on EB8-derived cells (EB8-derived cells treated with S18, injected into mouse brain, ten days after injection) is recorded as “did not show teratoma formation”. The “migration and integration of injected cells” value in the assay on EB8-derived cells (S18-treated EB8-derived cells, Vybrant diI stained, host killed after 21 days) was “migrated to the hippocampus, and integrated into the host's brain tissue”. Also, in assay [1] (6, 8 or 10 μM S18), the “time until effect was observed” value is not above 24 h. Moreover, in assay [1] (6, 8 or 10 μM S18 for 36 hours), the “effect on neural rosette structures” value is “did not appear to be adversely affected” and the “induction of apoptosis in the culture” value is recorded as “induced apoptosis of a large proportion of the culture”. Besides, the cell death entry in assay [1] (36 hours exposure to 6 μM S18) is reported as “a high proportion of cells within these cultures have been killed”. For the same molecule, in assay [1] (36 hours exposure to 8 μM S18), the cell death entry is recorded as “a high degree of cell death is apparent”. Further, the “ceramide analog-induced apoptosis in untransfected or mock (RFP)-transfected cells” value in assay [2] (40 μM S18) is reported as “no or only a low degree”. Besides, in assay [2] (80 μM S18, control morpholino-transfected and untransfected NPs), the “number of apoptotic cells” value is reported as “more than 80%”. In addition, in assay [2] (myriocin-treated ES cells transfected at NP1 stage, 40 μM S18), the “apoptosis in PAR-4-RFP transfected cells” value is recorded as “apoptosis was observed”.
